This note sets out measurements from patent US10654834B2 (Venenum Biodesign, LLC, priority 2016, dated 2020).

Structures are written as SMILES.

Data set [1] is described as follows: Pharmacokinetic profile in mice after oral gavage. Format: in vivo, mouse. To be noted: mouse; fasted male Hilltop mice, 10 mg/kg oral gavage, plasma; read-out: Cmax. The gist of the method: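 Fasted 8-week male Hilltop mice given 10 mg/kg orally in 20% PEG400/80% 0.5% CMC + 0.25% Tween-80. EDTA plasma sampled 0-4 h, measured by LC-MS/MS (MRM, positive ion); Cmax and AUC derived non-compartmentally, values being means of three mice.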

In the next data set the target is T1, human TGR5 receptor (Homo sapiens, UniProt Q8TDU6).
T1 construct: host or cells: CHO-K1 (hTGR5-CHO)
T1 sequence (Q8TDU6 1-330): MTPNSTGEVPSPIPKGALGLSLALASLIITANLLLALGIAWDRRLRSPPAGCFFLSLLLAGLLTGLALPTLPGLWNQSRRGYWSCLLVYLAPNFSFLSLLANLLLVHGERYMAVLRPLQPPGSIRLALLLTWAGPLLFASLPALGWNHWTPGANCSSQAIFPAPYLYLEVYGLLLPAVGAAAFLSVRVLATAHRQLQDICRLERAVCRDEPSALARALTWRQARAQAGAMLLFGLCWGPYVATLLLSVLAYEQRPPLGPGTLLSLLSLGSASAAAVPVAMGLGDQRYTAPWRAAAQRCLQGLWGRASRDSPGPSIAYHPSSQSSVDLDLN
The experiment in a line: Human TGR5 cAMP production assay (hTGR5-CHO cells, DiscoveRx cAMP XS+ kit). Format: cell-based. To be noted: luminescent cAMP assay, read-out: Human TGR5 Lum. cAMP Activity (EC50). The gist of the method:
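CHO-K1 cells stably expressing hTGR5, in PBS with IBMX and cAMP antibody, treated with half-log compound dilutions for 1 h at room temperature. cAMP measured by enzyme-fragment complementation luminescence after overnight detection; EC50 values reported.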
Background: Changes in cAMP serve as a functional read-out for many G protein-coupled receptors.

As usually defined, the Cmax is the peak of the concentration-time curve. In general, EC50 refers to the concentration at which the effect is half-maximal. For `N#Cc1ccc(CCNC(=O)[C@@H]2CCN2c2cc(N3CCC(CCCC(=O)NC[C@@H](O)CO)CC3)nc(C(F)(F)F)n2)cc1` [Compound 261, (S)-N-(4-cyanophenethyl)-1-(6-(4-(4-(((R)-2,3-dihydroxypropyl)amino)-4-oxobutyl)piperidin-1-yl)-2-(trifluoromethyl)pyrimidin-4-yl)azetidine-2-carboxamide], in data set [1], the maximum concentration (Cmax) turned out to be 48 ng/mL. In addition, the EC50 at human TGR5 receptor was under 100 nM.

In the case of `N#Cc1ccc(CCNC(=O)[C@@H]2CCCN2c2cc(N3CCC(CCCC(=O)NCCNC(=N)N)CC3)nc(C(F)(F)F)n2)cc1` [Compound 128, (S)-N-(4-cyanophenethyl)-1-(6-(4-(4-((2-guanidinoethyl)amino)-4-oxobutyl)piperidin-1-yl)-2-(trifluoromethyl)pyrimidin-4-yl)pyrrolidine-2-carboxamide], in data set [1], the Cmax was found to be 670 ng/mL. The concentration giving a half-maximal response (EC50) on human TGR5 receptor is under 100 nM.

Turning to `N#Cc1ccc(CCNC(=O)[C@@H]2CCN2c2cc(N3CCC(CCNC(=O)NCCOCCNC(=N)N)CC3)nc(C(F)(F)F)n2)cc1` [Compound 287, (S)-1-(6-(4-(1-amino-1-imino-9-oxo-5-oxa-2,8,10-triazadodecan-12-yl)piperidin-1-yl)-2-(trifluoromethyl)pyrimidin-4-yl)-N-(4-cyanophenethyl)azetidine-2-carboxamid], in data set [1], the Cmax was determined as 5 ng/mL. For the same compound, the EC50 at human TGR5 receptor was under 100 nM.

As to `N#Cc1ccc(CCNC(=O)[C@@H]2CCN2c2cc(N3CCC(CCNC(=O)NCCOCCNC(=O)NCCS(=O)(=O)O)CC3)nc(C(F)(F)F)n2)cc1` [Compound 358, (S)-15-(1-(6-(2-((4-cyanophenethyl)carbamoyl)azetidin-1-yl)-2-(trifluoromethyl)pyrimidin-4-yl)piperidin-4-yl)-4,12-dioxo-8-oxa-3,5,11,13-tetraazapentadecane-1-sulfonic acid], in data set [1], the Cmax is 3.4 ng/mL. Also, the EC50 at human TGR5 receptor was under 100 nM.

Turning to `COc1cc(C(F)(F)F)ccc1CCNC(=O)[C@@H]1CCN1c1cc(N2CCC(CCC(=O)O)CC2)nc(C(F)(F)F)n1` [Compound 239, (S)-3-(1-(6-(2-((2-methoxy-4-(trifluoromethyl)phenethyl)carbamoyl)azetidin-1-yl)-2-(trifluoromethyl)pyrimidin-4-yl)piperidin-4-yl)propanoic acid], the Cmax in data set [1] came to 53 ng/mL. For the same compound, the EC50 on human TGR5 receptor is under 100 nM.

`N#Cc1ccc(CCNC(=O)[C@@H]2CCN2c2cc(N3CCC(CCCC(=O)NCCS(=O)(=O)O)CC3)nc(C(F)(F)F)n2)cc1` [Compound 249, (S)-2-(4-(1-(6-(2-((4-cyanophenethyl)carbamoyl)azetidin-1-yl)-2-(trifluoromethyl)pyrimidin-4-yl)piperidin-4-yl)butanamido)ethanesulfonic acid]: in data set [1], the Cmax worked out at 3.4 ng/mL. Also, the EC50 on human TGR5 receptor was under 100 nM.

Turning to `NS(=O)(=O)CCNC(=O)CCCC1CCN(c2cc(N3CCC[C@H]3C(=O)NCCc3ccc(C(F)(F)F)cc3)nc(C(F)(F)F)n2)CC1` [Compound 59, (S)-1-(6-(4-(4-oxo-4-((2-sulfamoylethyl)amino)butyl)piperidin-1-yl)-2-(trifluoromethyl)pyrimidin-4-yl)-N-(4-(trifluoromethyl)phenethyl)-pyrrolidine-2-carboxamide], the Cmax in data set [1] was 43 ng/mL. Besides, at human TGR5 receptor, the EC50 was under 100 nM.

Turning to `N#Cc1ccc(CCNC(=O)[C@@H]2CCN2c2cc(N3CCC(CCCC(=O)NCCOCCNC(=N)N)CC3)nc(C(F)(F)F)n2)cc1` [Compound 284, (S)-N-(4-cyanophenethyl)-1-(6-(4-(4-((2-(2-guanidinoethoxy)-ethyl)amino)-4-oxobutyl)piperidin-1-yl)-2-(trifluoromethyl)pyrimidin-4-yl)azetidine-2-carboxamide], the Cmax in data set [1] turned out to be 13 ng/mL. In addition, the EC50 on human TGR5 receptor is under 100 nM.

For the compound `N#Cc1ccc(CCNC(=O)[C@@H]2CCCN2c2cc(N3CCC(CCCC(=O)NCCCS(=O)(=O)O)CC3)nc(C(F)(F)F)n2)cc1` [Compound 63, (S)-3-(4-(1-(6-(2-((4-cyanophenethyl)carbamoyl)pyrrolidin-1-yl)-2-(trifluoromethyl)pyrimidin-4-yl)-piperidin-4-yl)butanamido)propane-1-sulfonic acid], the Cmax in data set [1] turned out to be 1.3 ng/mL. In addition, the EC50 on human TGR5 receptor was under 100 nM.

In the case of `COc1cc(C(F)(F)F)ccc1CCNC(=O)[C@@H]1CCCN1c1cc(N2CCC(CCCC(=O)O)CC2)nc(C(F)(F)F)n1` [Compound 34], the Cmax in data set [1] came out at 31 ng/mL. Also, on human TGR5 receptor, the concentration for a half-maximal effect (EC50) was under 100 nM.

As for `COc1cc(C(F)(F)F)ccc1CCNC(=O)[C@@H]1CCN1c1cc(N2CCC(CCC(=O)NCCS(=O)(=O)O)CC2)nc(C(F)(F)F)n1` [Compound 259], the Cmax in data set [1] was 27 ng/mL. Further, the EC50 at human TGR5 receptor was under 100 nM.

For `N#Cc1ccc(CCNC(=O)[C@@H]2CCN2c2cc(N3CCC(CCNC(=O)NCCOCCNC(=O)NCCC(=O)O)CC3)nc(C(F)(F)F)n2)cc1` [Compound 360, (S)-1-(1-(6-(2-((4-cyanophenethyl)carbamoyl)azetidin-1-yl)-2-(trifluoromethyl)pyrimidin-4-yl)piperidin-4-yl)-4,12-dioxo-8-oxa-3,5,11,13-tetraazahexadecan-16-oic acid], the Cmax in data set [1] was 0.5 ng/mL. The concentration giving a half-maximal response (EC50) at human TGR5 receptor was under 100 nM.

Consider `N#Cc1ccc(CCNC(=O)[C@@H]2CCN2c2cc(N3CCC(CCNC(=O)NCCNC(=N)N)CC3)nc(C(F)(F)F)n2)cc1` [Compound 286, (S)-N-(4-cyanophenethyl)-1-(6-(4-(2-(3-(2-guanidinoethyl)-ureido)ethyl)piperidin-1-yl)-2-(trifluoromethyl)pyrimidin-4-yl)azetidine-2-carboxamide], for which the Cmax in data set [1] is 5.2 ng/mL. The EC50 on human TGR5 receptor was under 100 nM.

Regarding `N#Cc1ccc(CCNC(=O)[C@@H]2CCN2c2cc(N3CCC(CCCC(=O)NCCNC(=N)N)CC3)nc(C(F)(F)F)n2)cc1` [Compound 282, (S)—N-(4-cyanophenethyl)-1-(6-(4-(4-((2-guanidinoethyl)amino)-4-oxobutyl)piperidin-1-yl)-2-(trifluoromethyl)pyrimidin-4-yl)azetidine-2-carboxamide], the Cmax in data set [1] stood at 4.2 ng/mL. Also, the EC50 at human TGR5 receptor was under 100 nM.

Take `O=C(O)CCCC1CCN(c2cc(N3CCC[C@H]3C(=O)NCCc3ccc(C(F)(F)F)cc3)nc(C(F)(F)F)n2)CC1` [Compound 9]: the Cmax in data set [1] worked out at 48 ng/mL. For the same compound, the half-maximal effective concentration (EC50) at human TGR5 receptor was under 100 nM.

For the compound `N#Cc1ccc(CCNC(=O)[C@@H]2CCCN(c3cc(N4CCC(CO)CC4)nc(C(F)(F)F)n3)C2)cc1` [Compound 308, (R)—N-(4-cyanophenethyl)-1-(6-(4-(hydroxymethyl)piperidin-1-yl)-2-(trifluoromethyl)pyrimidin-4-yl)piperidine-3-carboxamide], in data set [1], the Cmax amounted to 18 ng/mL. Also, the concentration for a half-maximal effect (EC50) on human TGR5 receptor was under 100 nM.

Take `N#Cc1ccc(CCNC(=O)[C@@H]2CCCN2c2cc(N3CCC(CCCC(=O)NCCS(=O)(=O)O)CC3)nc(C(F)(F)F)n2)cc1` [Compound 61, (S)-2-(4-(1-(6-(2-((4-cyanophenethyl)carbamoyl)pyrrolidin-1-yl)-2-(trifluoromethyl)pyrimidin-4-yl)-piperidin-4-yl)butanamido)ethanesulfonic acid]: the Cmax in data set [1] amounted to 3.3 ng/mL. The EC50 on human TGR5 receptor was under 100 nM.

Consider `N#Cc1ccc(CCNC(=O)[C@@H]2CCCN2c2cc(N3CCC(CCNC(=O)[C@@H](N)CS(=O)(=O)O)CC3)nc(C(F)(F)F)n2)cc1` [Compound 123, (R)-2-amino-3-((2-(1-(6-((S)-2-((4-cyanophenethyl)carbamoyl)pyrrolidin-1-yl)-2-(trifluoromethyl)pyrimidin-4-yl)piperidin-4-yl)ethyl)amino)-3-oxopropane-1-sulfonic acid], for which, in data set [1], the maximum concentration (Cmax) came out at 1.4 ng/mL. In addition, on human TGR5 receptor, the EC50 was under 100 nM.

Take `N#Cc1ccc(CCNC(=O)[C@@H]2CCN2c2cc(N3CCC(CCNc4c(NCC(=O)O)c(=O)c4=O)CC3)nc(C(F)(F)F)n2)cc1` [Compound 302, (S)-2-((2-((2-(1-(6-(2-((4-cyanophenethyl)carbamoyl)azetidin-1-yl)-2-(trifluoromethyl)pyrimidin-4-yl)piperidin-4-yl)ethyl)amino)-3,4-dioxocyclobut-1-en-1-yl)amino)acetic acid]: in data set [1], the Cmax worked out at 3.7 ng/mL. Besides, the half-maximal effective concentration (EC50) at human TGR5 receptor was under 100 nM.

With `N#C/N=C(\NCCC(=O)O)NCCC1CCN(c2cc(N3CC[C@H]3C(=O)NCCc3ccc(C#N)cc3)nc(C(F)(F)F)n2)CC1` [Compound 351, (S,Z)-3-(2-cyano-3-(2-(1-(6-(2-((4-cyanophenethyl)carbamoyl)azetidin-1-yl)-2-(trifluoromethyl)pyrimidin-4-yl)piperidin-4-yl)ethyl)guanidino)propanoic acid], the peak concentration (Cmax) in data set [1] amounted to 301 ng/mL. On human TGR5 receptor, the EC50 is under 100 nM.

On to `N#Cc1ccc(CCNC(=O)[C@@H]2CCN2c2cc(N3CCC(CCNC(=O)NCCS(N)(=O)=O)CC3)nc(C(F)(F)F)n2)cc1` [Compound 269, (S)—N-(4-cyanophenethyl)-1-(6-(4-(2-(3-(2-sulfamoylethyl)ureido)ethyl)piperidin-1-yl)-2-(trifluoromethyl)pyrimidin-4-yl)azetidine-2-carboxamide], for which the Cmax in data set [1] came to 3.2 ng/mL. Also, the half-maximal effective concentration (EC50) at human TGR5 receptor was under 100 nM.
